Source: patent US20110110911A1 (priority 2009, published 2011)

Test system: DU-145 cells
Assay type: cell-based, human

Compound: C=C1[C@@H](C)[C@H]2[C@H](Cc3ccccc3)NC(=O)[C@]23[C@H](OC(C)=O)/C=C/[C@@](C)(O)C(=O)[C@@H](C)C/C=C/[C@H]3[C@@H]1O [Cytochalasin-D]
- Relative Wound Density at 24 Hours, Mean: 3.3 ± 0.2
- Relative Wound Density at 24 Hours, Percent Relative to Media: 4%
- effect on cell migration (in words): did not migrate
